Data as given in paper PMC2949700, “Identification of the full set of Listeria monocytogenes penicillin-binding proteins and characterization of PBPD2 (Lmo2812)” (BMC Microbiology, 2010).
Values after ≈ are worked out from the molar mass of the structure shown. Read-outs that look alike come from different tables or passages of the source.

Legend:
[1] = target: purified recombinant Lmo2812 (PBPD2) (Listeria monocytogenes, UniProt Q8Y3M3); experiment: Fluorescent antibiotic binding assay, purified recombinant protein; conditions: purified recombinant Lmo2812; antibiotic concentration for 50% of maximum binding; read-out: apparent affinity constant (Kd50)
purified recombinant Lmo2812 (PBPD2), sequence (Q8Y3M3 entry or part of it): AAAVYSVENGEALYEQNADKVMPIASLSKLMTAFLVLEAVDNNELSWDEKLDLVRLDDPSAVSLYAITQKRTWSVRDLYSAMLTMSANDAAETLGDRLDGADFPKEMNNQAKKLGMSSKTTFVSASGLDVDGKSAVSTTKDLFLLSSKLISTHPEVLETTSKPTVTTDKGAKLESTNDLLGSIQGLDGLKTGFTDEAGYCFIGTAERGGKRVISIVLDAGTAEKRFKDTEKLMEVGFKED
Method: The purified protein was incubated with different concentrations of Boc-FL (0.25, 0.5, 2.5, 5 and 10 μM). […] Lmo2812 was the major band on gels, with a slower migrating minor band thought to represent a dimeric form (Figure 2).
Figure 2 Purified recombinant L. monocytogenes Lmo2812 (PBPD2) identified with Boc-FL. Samples of purified recombinant Lmo2812 (10 μg) were labeled with Boc-FL at concentrations of 0 (1), 0.25 (2), 0.5 (3), 2.5 (4), 5 (5) and 10 μM (6). Labeled bands were detected directly on the gel, quantified and their molecular mass estimated. The affinity of the bands for Boc-FL (Kd50) was estimated from their fluorescence as a function of the concentration of Boc-FL. The names of the bands are indicated on the right, and the positions of the molecular weight markers are shown on the left.
The β-lactam binding capacity of Lmo2812 was evaluated with three different fluorescent antibiotics: Boc-FL, Boc-650 and Amp-430.
Total whole cell proteins or purified recombinant protein resuspended in 50 mM NaPi buffer, pH 7.0 were labeled by incubation at 37°C for 30 min with different concentrations of Boc-FL (Molecular Probes), Boc-650 (Molecular Probes) or Amp-430 (prepared in the laboratory by coupling ampicillin to Alexa-430), and then separated on a 10% acrylamide, 3.3% cross-linkage SDS-PAGE gel. To avoid degradation of the fluorescent β-lactam antibiotics by β-lactamases, samples were incubated at 37°C with clavulanic acid at a final concentration of 10 μg/ml or EDTA at a final concentration of 10 mM for 30 min before labeling, where appropriate. Competition experiments were carried out by preincubation of the samples with ampicillin (100 μg/ml) for 30 min at 37°C, before adding the fluorescent antibiotic. The samples were then further incubated for 30 min at 37°C. PBPs were visualized directly on the polyacryloamide gel by fluorescence using a Typhoon 9410 imager (Amersham Biosciences) with excitation wavelengths of 588, 633 or 457 nm and emission filters 520BP40, 670BP30 or 555BP20 for Boc-FL, Boc-650 and Amp-430, respectively. […]

[2] = test system: L. monocytogenes AD07 (Δlmo2812 Δlmo2754); experiment: Microdilution MIC test; format: cell-based, Listeria monocytogenes
Method: (§1) To determine the effect of these mutations on cell morphology, the strains EGD, KD2812 and DA07 were analyzed by scanning electron microscopy (SEM). […] At 30°C the average cell length compared to strain EGD was increased by 38.5% in strain KD2812 and by 44.8% in the double mutant strain. The respective values at 37°C were 37.5% and 43%. […] The variant cells were characteristically curved with a bend at either one or both ends and subterminal constrictions. The number of cells with altered morphology was increased as the growth temperature was raised (Figure 3; b, e, h). Cell bending was more pronounced in the population of AD07 mutant cells (Figure 3; c, f, i). […] Similar results were found for a mutant of L. monocytogenes lacking PBP5 (PBPD1) examined in a previous study.
(§2) Microdilution tests were performed using cation-adjusted Mueller-Hinton broth (CAMHB) supplemented with 5% lysed horse blood containing two-fold dilutions of the antimicrobial agents. These mixtures were dispensed in 100 μl aliquots into plastic 96-well plates. To prepare inocula, a single colony of each strain from a TSBYE plate was transferred into 10 ml of the same medium and incubated for 24 h at 37°C. These cultures were serially diluted in CAMHB to a concentration of 10^5 cfu/ml and 100 μl aliquots were added to the microdilution plates. The plates were incubated for 18-20 h at 37°C before the reading of the MIC endpoints. The MIC was the lowest antibiotic concentration at which visible growth was inhibited.

L. monocytogenes EGD = experiment: Microdilution MIC test; format: cell-based, Listeria monocytogenes
Method: as §1, §2

[3] = test system: L. monocytogenes KD2812 (Δlmo2812); experiment: Microdilution MIC test; format: cell-based, Listeria monocytogenes
Method: as §1, §2

recombinant Lmo2812 = experiment: Enzymatic activity assay with natural muropeptides; format: biochemical, Listeria monocytogenes; conditions: for M4 (%) / M5 (%): 120 min at 37°C, HPLC
Method: No such cleavage occurred in the absence of Lmo2812.
The pH-dependence of the activity of Lmo2812 against monomeric muropepeptide M5 was determined in the pH range of 4.5 to 7.0. The highest activity was detected in assays performed at pH 7.0 in a Tris-Mg buffer, where half of the substrate was converted to the tetrapeptide (Table 3).
Whole total peptidoglycan and purified muropeptides were isolated from E. coli cells as described previously. A 10 μg sample of recombinant Lmo2812 was mixed with 5 μg of M5 (NAcGlc-NAcMur-pentapeptide) or D45 (NAcGlc-NAcMur-tetrapeptide-NAcGlc-NAcMur-pentapeptide) in a volume of 30 μl using three different buffer conditions: pH 4.5 (50 mM NaPi, 1% methanol, pH 4.5), pH 7.0 (30 mM Tris-HCl, 3 mM MgCl2, pH 7.0), or NaPi (50 mM sodium phosphate buffer, pH 7.0). These mixtures were incubated at 37°C for 120 min. Control samples of M5 or D45 without Lmo2812 were similarly incubated in 30 mM Tris-HCl buffer, 3 mM MgCl2, pH 7.0. The samples were analyzed by HPLC using a C18 reversed phase column and a methanol gradient to separate the peaks.

[4] = test system: purified recombinant Lmo2812; experiment: DD-carboxypeptidase activity assay with synthetic tripeptide; format: biochemical, Listeria monocytogenes; conditions: substrate up to 12.5 mM, 40 μg of purified protein
Method: The maximum activity was 0.75 pmoles/μg min, indicating low DD-carboxypeptidase activity under these assay conditions.
A modification of the method of Frere et al. was used for DD-carboxypeptidase activity measurement. A reaction mixture comprised of 15 μl of Nα,Nε-Diacetyl-Lys-D-Ala-D-Ala (25 mM), 3 μl of buffer (300 mM Tris-HCl pH 7.5) and 12 μl of purified recombinant Lmo2812 was prepared, incubated at 37°C and samples were taken every 10 min for 1 h. To these samples, 5 μl of 10 mg/ml (in methanol) o-Dianisidine (SIGMA) and 70 μl of enzyme/coenzyme mix (flavinadenine dinucleotide (FAD), Peroxidase and D-Amino acid Oxidase) were added. These mixtures were incubated at 37°C for 5 min, then 400 μl of methanol-water (v/v) was added and incubation continued at 37°C for another 2 min. The absorbance of each reaction was immediately read at 460 nm. A number of controls were performed: reactions containing only recombinant Lmo2812 fractions, reactions lacking recombinant Lmo2812 to establish the level of natural degradation of the tripeptide for at each sampling point, and standard samples containing known amounts of D-alanine.

[5] = Listeria monocytogenes, EGD wild-type, CAMHB with 5% lysed horse blood, 18-20 h at 37°C, read-out: MIC
[6] = AD07 double mutant, CAMHB with 5% lysed horse blood, 18-20 h at 37°C
[7] = EGD wild-type, CAMHB with 5% lysed horse blood, 18-20 h at 37°C
[8] = KD2812 mutant, CAMHB with 5% lysed horse blood, 18-20 h at 37°C

Ampicillin-Alexa430 [Amp-430]
Kd [1]: 18.5 µM

CO[C@@]1(NC(=O)Cc2cccs2)C(=O)N2C(C(=O)O)=C(COC(N)=O)CS[C@@H]21 [cefoxitin]
MIC ([2]; Listeria monocytogenes): 32 µg/mL (≈ 74.9 µM)
MIC (L. monocytogenes EGD; Listeria monocytogenes): 32 µg/mL (≈ 74.9 µM)
MIC ([3]; Listeria monocytogenes): 32 µg/mL (≈ 74.9 µM)

NAcGlc-NAcMur-pentapeptide [M5]
M4 (%) (recombinant Lmo2812; Lmo2812, M5, NaPi, pH 7.0): 16%
M5 (%) (recombinant Lmo2812; Lmo2812, M5, NaPi, pH 7.0): 84%
M4 (%) (recombinant Lmo2812; Lmo2812, M5, Tris-Mg, pH 7.0): 48%
M5 (%) (recombinant Lmo2812; Lmo2812, M5, Tris-Mg, pH 7.0): 52%
M4 (%) (recombinant Lmo2812; Lmo2812, M5, pH 4.5): 3%
M5 (%) (recombinant Lmo2812; Lmo2812, M5, pH 4.5): 97%

CC(C)(O/N=C(\C(=O)N[C@@H]1C(=O)N2C(C(=O)[O-])=C(C[n+]3ccccc3)CS[C@H]12)c1csc(N)n1)C(=O)O [ceftazidime]
MIC ([2]; Listeria monocytogenes): 256 µg/mL (≈ 468 µM)
MIC (L. monocytogenes EGD; Listeria monocytogenes): 256 µg/mL (≈ 468 µM)
MIC ([3]; Listeria monocytogenes): 256 µg/mL (≈ 468 µM)

CCN1CCN(C(=O)N[C@@H](C(=O)N[C@@H]2C(=O)N3[C@@H]2SC(C)(C)[C@@H]3C(=O)O)c2ccccc2)C(=O)C1=O [piperacillin]
MIC ([2]; Listeria monocytogenes): 1.25 µg/mL (≈ 2.42 µM)
MIC (L. monocytogenes EGD; Listeria monocytogenes): 1.25 µg/mL (≈ 2.42 µM)
MIC ([3]; Listeria monocytogenes): 1.25 µg/mL (≈ 2.42 µM)

NAcGlc-NAcMur-tetrapeptide-NAcGlc-NAcMur-pentapeptide [D45]
hydrolysis by purified Lmo2812 (recombinant Lmo2812; up to 100 μg of protein, up to 18 h): no such enzymatic activity was detected

CC(=O)OCC1=C(C(=O)O)N2C(=O)[C@@H](NC(=O)Cc3cccs3)[C@H]2SC1 [cefalotin]
MIC (L. monocytogenes EGD; [5]): 2 µg/mL (≈ 5.04 µM)

CO/N=C(\C(=O)N[C@@H]1C(=O)N2C(C(=O)O)=C(COC(C)=O)CS[C@H]12)c1csc(N)n1 [cefotaxim]
MIC [2, 6]: 6 µg/mL (≈ 13.2 µM)
MIC (L. monocytogenes EGD; [7]): 6 µg/mL (≈ 13.2 µM)
MIC [3, 8]: 6 µg/mL (≈ 13.2 µM)

Cc1onc(-c2ccccc2)c1C(=O)N[C@@H]1C(=O)N2[C@@H]1SC(C)(C)[C@@H]2C(=O)O [oxacillin]
MIC ([2]; Listeria monocytogenes): 1.25 µg/mL (≈ 3.11 µM)
MIC (L. monocytogenes EGD; [5]): 2.5 µg/mL (≈ 6.23 µM)

Bocillin-650 [Boc-650]
Kd [1]: 2.8 µM

penicillin
MIC [2, 6]: 0.08 µg/mL
MIC (L. monocytogenes EGD; [7]): 0.16 µg/mL
MIC [3, 8]: 0.16 µg/mL

Nα,Nε-Diacetyl-Lys-D-Ala-D-Ala
maximum DD-carboxypeptidase activity [4]: 0.75 pmol/µg/min
